Test [1] deals with T1, Muscarinic acetylcholine receptor M4 (Homo sapiens, UniProt P08173).
T1 sequence (P08173 whole entry): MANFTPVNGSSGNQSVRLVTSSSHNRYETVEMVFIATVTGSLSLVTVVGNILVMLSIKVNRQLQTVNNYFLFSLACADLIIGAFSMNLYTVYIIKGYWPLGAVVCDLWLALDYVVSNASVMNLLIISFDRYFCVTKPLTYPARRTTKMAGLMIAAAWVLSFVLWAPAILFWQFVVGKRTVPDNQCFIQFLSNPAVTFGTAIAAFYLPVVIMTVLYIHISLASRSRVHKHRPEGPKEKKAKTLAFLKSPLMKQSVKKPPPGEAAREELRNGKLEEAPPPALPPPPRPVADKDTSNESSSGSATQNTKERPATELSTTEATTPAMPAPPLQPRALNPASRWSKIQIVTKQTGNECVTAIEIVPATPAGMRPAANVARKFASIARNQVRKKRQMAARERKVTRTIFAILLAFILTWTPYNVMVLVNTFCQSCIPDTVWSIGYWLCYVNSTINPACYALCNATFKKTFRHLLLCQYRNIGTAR

For test [2], the target named is Muscarinic acetylcholine receptor M3 (Homo sapiens, UniProt P20309).
Chain of Muscarinic acetylcholine receptor M3 (P20309 whole entry): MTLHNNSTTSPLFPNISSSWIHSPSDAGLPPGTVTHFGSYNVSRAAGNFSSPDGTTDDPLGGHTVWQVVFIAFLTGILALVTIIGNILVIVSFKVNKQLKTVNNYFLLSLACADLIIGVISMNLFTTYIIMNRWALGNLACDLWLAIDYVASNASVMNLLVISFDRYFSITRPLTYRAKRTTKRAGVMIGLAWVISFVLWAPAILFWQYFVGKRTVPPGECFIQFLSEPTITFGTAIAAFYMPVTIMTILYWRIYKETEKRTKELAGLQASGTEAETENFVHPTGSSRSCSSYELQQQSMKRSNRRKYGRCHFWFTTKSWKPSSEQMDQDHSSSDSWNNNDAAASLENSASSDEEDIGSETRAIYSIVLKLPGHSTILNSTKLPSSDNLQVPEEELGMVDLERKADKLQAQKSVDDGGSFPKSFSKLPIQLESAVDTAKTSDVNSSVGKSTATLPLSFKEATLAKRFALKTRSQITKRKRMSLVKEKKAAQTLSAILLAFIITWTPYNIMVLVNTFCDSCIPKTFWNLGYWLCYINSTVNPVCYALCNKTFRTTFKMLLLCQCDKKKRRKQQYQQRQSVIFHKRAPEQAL
Test [3] has as its target T2, Muscarinic acetylcholine receptor M5 (Homo sapiens, UniProt P08912).
T2 sequence (P08912 whole entry): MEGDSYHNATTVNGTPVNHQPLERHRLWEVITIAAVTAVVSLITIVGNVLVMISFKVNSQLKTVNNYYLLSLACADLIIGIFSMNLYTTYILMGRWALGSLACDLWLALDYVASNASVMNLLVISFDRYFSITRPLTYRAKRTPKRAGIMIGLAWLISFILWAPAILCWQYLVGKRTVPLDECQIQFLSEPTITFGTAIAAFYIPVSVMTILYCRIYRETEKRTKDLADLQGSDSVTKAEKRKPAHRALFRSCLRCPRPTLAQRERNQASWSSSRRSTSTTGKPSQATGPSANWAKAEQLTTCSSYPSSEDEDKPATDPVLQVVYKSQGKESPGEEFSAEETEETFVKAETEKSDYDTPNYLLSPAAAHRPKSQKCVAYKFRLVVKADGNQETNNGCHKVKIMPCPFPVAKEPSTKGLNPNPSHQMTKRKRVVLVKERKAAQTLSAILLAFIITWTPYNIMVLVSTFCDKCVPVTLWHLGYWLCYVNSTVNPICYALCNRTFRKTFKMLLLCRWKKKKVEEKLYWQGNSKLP

Test [4] addresses T3, Muscarinic acetylcholine receptor M1 (Homo sapiens, UniProt P11229).
T3 sequence (P11229 whole entry): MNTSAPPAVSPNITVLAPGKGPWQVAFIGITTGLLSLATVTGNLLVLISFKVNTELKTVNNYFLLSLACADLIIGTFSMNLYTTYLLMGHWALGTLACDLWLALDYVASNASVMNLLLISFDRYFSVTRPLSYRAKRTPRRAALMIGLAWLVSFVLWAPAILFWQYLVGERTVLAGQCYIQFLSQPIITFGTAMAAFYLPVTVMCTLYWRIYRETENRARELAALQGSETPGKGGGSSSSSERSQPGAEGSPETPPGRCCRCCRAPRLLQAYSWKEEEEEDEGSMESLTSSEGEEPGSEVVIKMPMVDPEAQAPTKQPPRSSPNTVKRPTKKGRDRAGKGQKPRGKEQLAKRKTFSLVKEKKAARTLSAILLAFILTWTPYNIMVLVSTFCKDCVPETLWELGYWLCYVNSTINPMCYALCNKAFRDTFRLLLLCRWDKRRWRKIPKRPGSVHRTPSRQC

Broadly, the Ki is a dissociation constant, usually derived from enzyme kinetics or from competition with a known ligand. Regarding `COc1ccccc1CNCCCCCCNCCCCCCCCNCCCCCCNCc1ccccc1OC` [METHOCTRAMINE], the results for the Ki in test [1], in test [2] and in test [3] were 38 nM, 277 nM and 313 nM, respectively.

On to `CN(CCCCCCCCN(C)CCCCCCN(CC(=O)N1c2ccccc2C(=O)Nc2cccnc21)CC(=O)N1c2ccccc2C(=O)Nc2cccnc21)CCCCCCNCC(=O)N1c2ccccc2C(=O)Nc2cccnc21` [NSC_132947], for which the Ki in test [1] was found to be 6.41 nM; in test [2] it was 38.2 nM; in test [3] it was 33.9 nM; in test [4], 1.58 nM.
